Measured values published in patent US20240307415A1, “STEROID COMPOUND, AND PHARMACEUTICAL COMPOSITION THEREOF AND USE THEREOF” (JIANGSU SIMCERE PHARMACEUTICAL CO., LTD., priority 2021, published 2024).

Legend:
CHS mouse model = assay: Efficacy test in CHS mouse model (FITC sensitization, right ear thickness); assay type: in vivo, C57BL/6N mice; details: 3 μg/mouse
Description: Construction of CHS mouse model: 6- to 8-week-old female C57BL/6N mice (Beijing Vital River Laboratory Animal Technology Co., Ltd.) were selected, and all mice were shaved off abdominal hair using a small animal hair clipper. 400 μL of the sensitizer was pipetted with a micropipette and applied evenly to the abdomen of the mice for epidermal sensitization. After application, the mice were held for 3-5 s and the solvent was allowed to evaporate from the skin as clean as possible. The specific preparation method for the sensitizer was: 0.5 g of FITC (fluorescein isothiocyanate; sigma-Aldrich) powder was weighed and fully dissolved in a solvent of 50 mL of acetone (SinoPharm reagent) and 50 mL of DBP (dibutyl phthalate; sigma-Aldrich) in equal proportion to give the sensitizer with the FITC content of 0.5%. On the 6th day after sensitization, the thickness of the right ear of the mice was measured with a dial thickness gauge as a baseline value, then a freshly prepared sensitizer was pipetted with a micropipette and applied evenly inside and outside of the right ear of the mice respectively for epidermal stimulation, and 10 μL of the sensitizer was applied on each side. 24 h after stimulation, the thickness of the right ear of the mice was measured again with a dial thickness gauge to obtain the thickness change of the right ear of the mice, A thickness of right ear=(thickness of right ear 24 h after stimulation)−(baseline value of thickness of right ear).
Therapeutic regimen for CHS model mouse: mice were divided into a blank group, a negative control group, a positive control group, and an experimental group. […] The drug was administered by one-time intraperitoneal injection 1 h before the right ear epidermal stimulation.

[1] = Plasma protein binding rate, human plasma (equilibrium dialysis); assay type: in vitro ADME; details: pH 7.4, equilibrium dialysis 6 h, 37° C.
Description: The protein binding rates of the compound of the present invention in plasma of 5 species (humans, monkeys, dogs, rats, and mice) were determined using the following method.
• 1. Human plasma (BioIVT), monkey plasma (ADME-plasma-pooled monkey-05212020), beagle dog plasma (BioIVT), SD rat plasma (BioIVT), and CD-1 mouse plasma (BioIVT) • 2. Na2HPO4 (Sigma S5136-500G) • 3. NaH2PO4 (Sigma S3139-500G) • 4. NaCl (Sigma S5886-IKG) • 5. 96-well equilibrium dialysis plate (HTDialysis LLC, Gales Ferry, CT, HTD96B) and equilibrium dialysis membrane (MWCO 12-14K, 1101) • 6. Positive control compound warfarin • 7. ABI QTrap 5500 liquid chromatography-mass spectrometry system
• 1. […] Preparation of a dialysis membrane: the dialysis membrane was soaked in ultrapure water for 60 min to separate the membrane into two pieces, then soaked with 20% ethanol for 20 min, and finally soaked with dialysis buffer for 20 min. • 3. Preparation of plasma: the frozen plasma was quickly thawed at room temperature and then centrifuged at 3,220 g at 4° C. for 10 min to remove clots, and the supernatant was collected to a new centrifuge tube. The pH of the plasma was measured and recorded. The plasma with pH 7-8 was used. • 4. […]
The peak areas of the compound on the buffer side and the plasma side were measured. The plasma protein binding rate of the compound was calculated by the following formula: […]

K562-GRE reporter gene = K562-GRE reporter gene activity; assay type: cell-based; details: 24 h, read-out: K562-GRE Reporter EC50
Description: To generate the parental K562-GRE cell line, K562 cells were seeded at 5×10^5 cells/well onto a 6-well plate (brand: Costar, Cat. No: 3516) containing 2 mL of complete medium (RPM1640, 10% FBS, penicillin-streptomycin) and cultured at 37° C. with 5% CO2 for 24 h. The next day, 3 μg of pNL2.2[NLucP/MMTV/Hygro-NANO] (Promega) and 3 μL of PLUS reagent (brand: Invitrogen, Cat. No: 11514-015) were diluted in 150 μL of Opti-MEM (brand: Gibco, Cat. No: 11058021) and incubated at room temperature for 5 min. The pNL2.2[NLucP/MMTV/Hygro-NANO] vector contains MMTV LTR (mouse mammary tumor virus long terminal repeat), which drives transcription of the luciferase reporter gene NanoLuc in response to activation of several nuclear receptors (e.g. glucocorticoid receptor and androgen receptor). After incubation, the diluted DNA solution was mixed with Lipofectamine LTX solution (brand: Invitrogen, Cat. No: 15338-100) (6 μL of Lipofectamine LTX+144 μL of Opti-MEM) in a 1:1 ratio, pre-incubated, and incubated at room temperature for 15 min to form a DNA-Lipofectamine LTX complex. After incubation, 300 μL of the DNA-Lipofectamine complex was added directly to the cell wells. The K562 cells were transfected at 37° C. with 5% CO2 for 24 h. After transfection, the cells were washed with 3 mL of PBS and selectively grown for two weeks with complete growth medium containing 125 μg/mL hygromycin B (brand: Invitrogen, Cat. No: 10687010). “K562-GRE (pNL2.2[NLucP/MMTV/Hygro-NANO])” cells were generated.
After mixing, the cells were cultured in an incubator at 37° C. for 24 h. After 24 h of incubation, an equal volume of 100 μL of Nano-Glo luciferase assay system (brand: Promega, Cat. No: N1120) was added to the cells, the mixture was reacted in a shaker at […] for 10 min, and the chemiluminescence values were detected using the PHERAstar instrument. The antibody binding curves were plotted using the logarithmic value of the antibody concentration as the abscissa and the corresponding chemiluminescence reading as the ordinate, and the EC50 value was calculated by four-parameter fitting (GraphPad Prism9).

## C[C@]12C=CC(=O)C=C1CC[C@@H]1[C@@H]2[C@@H](O)C[C@@]2(C)[C@H]1C[C@H]1O[C@@H](c3ccc(Cc4cc(N)c5c(c4)CCO5)cc3)O[C@]12C(=O)CO [Compound 009, (6aR,6bS,7S,8aS,8bS,10R,11aR,12aS,12bS)-10-(4-((7-amino-2,3-dihydrobenzofuran-5-yl)methyl)phenyl)-7-hydroxy-8b-(2-hydroxyacetyl)-6a,8a-dimethyl-6a,6b,7,8,8a,8b,11a,12,12a,12b-decahydro-1H-naphtho[2′,1′:4,5]indeno[1,2-d][1,3]dioxolan-4(2H)-one]
CHS mouse model; one-time intraperitoneal injection 1 h before right ear stimulation, measured 24 h after stimulation
  thickness of the right ear in CHS mice compared to the negative control group: significant decrease
CHS mouse model; one-time intraperitoneal injection, CHS mice, right ear thickness
  efficacy compared with positive reference compound a at the same dose: superior in efficacy to the positive reference compound a
[1]
  fraction unbound at 6 h, 1 μM: 0.002
K562-GRE reporter gene
  EC50: 5.76 nM
